In patent US12097232B1, “Method of preventing cadmium-induced renal toxicity using a plant product derived from Achillea millefolium L” (KING FAISAL UNIVERSITY, priority 2024, dated 2024):

Tests used:
Format in all cases: in vivo, Wistar rats
[1] = tested on: Caspase 3, Caspase 9, Bax, Bcl2; details: CdCl2 renal injury vs control
Method: (§1) Thirty-two adult male Wistar rats (8-9 weeks old, weighing, 160-180 g) were purchased from the Experimental Animal Research Centre, King Saud University, Riyadh, KSA.
(§2) To study the renal protective activity of Achillea millefolium essential oil (AEO) on CdCl2-induced renal toxicity, rats were randomly divided into four groups (n=8 per group). Control rats were orally administered saline 1 h before injected intraperitoneally (i.p.) with 0.9% NaCl (physiological saline) daily for 5 days. The CdCl2 group was orally administered saline 1 h before injected i.p. with 6.5 mg/kg CdCl2 daily for 5 days. The AEO group was orally administered AEO (200 mg/kg) 1 h before injected with 0.9% NaCl (physiological saline) daily for 5 days. The AEO+CdCl2 group was orally administered AEO (100 mg/kg) 1 h before injected 6.5 mg/kg CdCl2 i.p. daily for 5 days. CdCl2 was dissolved in physiological saline.
(§3) Rats were euthanized (decapitation) 24 hours after the final dosing. The kidneys were dissected, weighed to obtain the weight and then divided into 2 parts. The 1st part was homogenized in ice-cold 10 mM phosphate buffer (pH 7.4) to produce a 10% (w/v) homogenate for biochemical analysis. The 2nd part was kept at −80° C. for quantitative real-time qRT-PCR.
(§4) Gene expression for the TLR pathway, High-mobility group box 1 (HMBG1), Toll-Like Receptor 4 (TLR4), myeloid differentiation primary response gene 88 (MYD88), and Nuclear factor kappa B (NFκB) were quantified via real-time PCR (qPCR) consuming the primers' sequences, shown in Table 1, in agreement with the method described elsewhere. Briefly, RNA was isolated and purified using a Trizol reagent kit (Invitrogen, Carlsbad, CA, USA), then a reverse transcription polymerase chain reaction (RT-PCR) kit (TaKaRa, Kusatsu, Shiga, Japan) to reverse transcription reaction following the manufacturer's procedures. qPCR was applied using a SYBR ExScript RT-PCR kit, and quantification examinations were accomplished via an Opticon-2 Real-time PCR reactor (MJ Research, Capital Court, Reno, NV, USA). qPCR results were obtained using Step PE Applied Biosystems (Waltham, MA, USA) software. Relative gene expression data were calculated as mentioned earlier by the Livak and Schmittgen method (2−^ΔΔCq2) and presented as a fold change.
The actions of AEO administration on the apoptotic markers, such as caspase-3 and caspase 9 were evaluated.

[2] = Kidney weight in CdCl2-induced renal toxicity rats
Method: as §1
All the animals were maintained with typical laboratory food and water ad libitum in a ventilated cage system (12 h light/dark cycle, 20.3-23.1° C.) throughout the whole experiment.
as §2
(§5) Rats were euthanized (decapitation) 24 hours after the final dosing. The kidneys were dissected, weighed to obtain the weight and then divided into 2 parts. […] The 2nd part was kept at −80° C. for quantitative real-time qRT-PCR.

[3] = tested on: HMGB1, TLR4, MYD88, NFκB gene expression; details: renal
Method: as §1, §2, §3, §4

MDA, SOD, CAT, GPx, GSH = assay: Renal oxidative stress markers in Cd-induced renal toxicity
Method: as §1, §2, §3
Lipid peroxidation was assessed according to the amount of malondialdehyde (MDA). The content of reduced glutathione (GSH) was evaluated and the activities of Catalase (CAT), Superoxide dismutase (SOD) and glutathione peroxidase (GPx) were estimated using kits.

[4] = tested on: kidney function biomarkers (BUN, uric acid, creatinine, NAG); assay: Kidney function biomarkers in CdCl2-induced renal toxicity
Method: as §1, §2, §3
Biomarkers of kidney function, i.e., Blood urea nitrogen (BUN), uric acid, and creatinine, were evaluated by using specific commercial kits. N-acetyl-β-D-glucosaminidase (NAG) is a marker of tubular toxicity was assessed using ELISA kit.

[5] = tested on: TNF-α, IFN-γ, MCP-1, IL-10; assay: Renal inflammatory mediators by ELISA in Cd-induced renal toxicity; details: CdCl2 group vs control
Method: as §1, §2, §3
Inflammation markers including interferon gamma (IFN-γ), monocyte chemoattractant protein-1 (MCP-1), tumor necrosis factor alpha (TNF-α), and interleukin 10 (IL-10) were measured using ELISA kits.

[6] = Cd concentration in renal tissue by atomic absorption spectrophotometry
Method: as §1, §2, §5
The Cd concentrations in renal tissues were estimated as mentioned before. […] The levels of metal were measured by atomic absorption spectrophotometry in a graphite furnace at 228.8 nm. The Cd values are expressed as microgram per gram of wet renal tissue.

[7] = CdCl2 group: CdCl2 6.5 mg/kg i.p. daily 5 days, mean ± SD
[8] = Cd experienced animals vs control
[9] = renal, CdCl2 administered rats vs control

For [Cl][Cd][Cl] [CdCl2], the “caspase 3 renal content” value [1] was “augmented”, the “caspase 9 renal content” value [1] was “augmented” and the Bax gene expression ([1]; renal) was “augmented”. The Bcl2 gene expression ([1]; renal) was “diminished”, the “kidney weight (in words)” value ([2]; CdCl2 group vs control) was “reduction in kidney weight” and the Kidney wt. [2, 7] was 1.43 ± 0.11 g. The “HMGB1 mRNA expression level” value ([3]; Cd administered rats vs control) was “increased”, the “MYD88 mRNA expression” value [3, 8] was “amplified significantly” and the “TLR4 mRNA expression” value [3, 8] was “amplified significantly”. The “nuclear NFκB p65 level” value ([3]; Cd group vs control) was “significantly augmented”, the “renal GSH content” value (MDA, SOD, CAT, GPx, GSH; CdCl2 group vs control) was “obvious reduction” and the CAT activity (MDA, SOD, CAT, GPx, GSH; [9]) was “considerably declined”. The GPx activity (MDA, SOD, CAT, GPx, GSH; [9]) was “considerably declined”, the SOD activity (MDA, SOD, CAT, GPx, GSH; [9]) was “considerably declined” and the “MDA level (lipid peroxidation)” value (MDA, SOD, CAT, GPx, GSH; renal, CdCl2 group vs control) was “augmented”. The “BUN level (in words)” value ([4]; Cd-exposed rats vs control) was “increases”, the “serum creatinine level (in words)” value ([4]; Cd-exposed rats vs control) was “increases” and the “uric acid level (in words)” value ([4]; Cd-exposed rats vs control) was “increases”. It also gave a BUN [4, 7] of 40.66 ± 3.15 mg/dL, an NAG [4, 7] of 33.2 ± 6.8 mIU/ml and a Uric acid [4, 7] of 4.54 ± 0.15 mg/dL. The Creatinine ([4]; serum, CdCl2 group: CdCl2 6.5 mg/kg i.p. daily 5 days, mean ± SD) was 0.68 ± 0.01 mg/dL, the IFN-γ renal level [5] was “amplified” and the MCP-1 renal level [5] was “amplified”. For the same molecule, the TNF-α renal level [5] was “amplified”, the IL-10 level ([5]; renal) was “declined” and the “Cd concentration in renal tissue (in words)” value ([6]; CdCl2 group vs control) was “significantly increased”. It also gave a Cd concentration [6, 7] of 0.95 ± 0.01 μg/g renal tissue.
